Experimental data reported in PMC4503722, “Novel Phenotypic Outcomes Identified for a Public Collection of Approved Drugs from a Publicly Accessible Panel of Assays” (PLoS ONE, 2015).
Where two headings read alike, the source gives them in different places.

How the values were obtained:
[1] = tested on: HCT116 cells treated with a GSK3β inhibitor; test: cells; assay type: cell-based
NCI-H716 cells = test: cells; assay type: cell-based, Human
SW480 = test: cells; assay type: cell-based
INS-1E cells [2] = test: cells; assay type: cell-based, rat; conditions: for EC50: Rattus norvegicus, INS-1E
HCT116 = test: cells; assay type: cell-based
HeLa cells = test: cells; assay type: cell-based
INS-1E cells [3] = assay type: cell-based, rat
[4] = tested on: nuclear β-catenin in C2C12 cells; test: cells; assay type: cell-based
DLD-1 = test: cells; assay type: cell-based
[5] = tested on: endothelial tube formation in co-cultures of ECFCs and ADSCs treated with VEGF; test: cells; assay type: cell-based, human
[6] = tested on: ECFC/ADSC co-culture cell nuclei number
HT-29 = test: cells; assay type: cell-based
hFLT3 = biological target: T1, hFLT3 (Homo sapiens, UniProt P36888); test: Cerep LANCE kinase assay hFLT3 (S1 assay 35); assay type: biochemical
T1 construct: purchased Cerep (LANCE kinase assay platform, contract assay)
T1 sequence (P36888 27-993): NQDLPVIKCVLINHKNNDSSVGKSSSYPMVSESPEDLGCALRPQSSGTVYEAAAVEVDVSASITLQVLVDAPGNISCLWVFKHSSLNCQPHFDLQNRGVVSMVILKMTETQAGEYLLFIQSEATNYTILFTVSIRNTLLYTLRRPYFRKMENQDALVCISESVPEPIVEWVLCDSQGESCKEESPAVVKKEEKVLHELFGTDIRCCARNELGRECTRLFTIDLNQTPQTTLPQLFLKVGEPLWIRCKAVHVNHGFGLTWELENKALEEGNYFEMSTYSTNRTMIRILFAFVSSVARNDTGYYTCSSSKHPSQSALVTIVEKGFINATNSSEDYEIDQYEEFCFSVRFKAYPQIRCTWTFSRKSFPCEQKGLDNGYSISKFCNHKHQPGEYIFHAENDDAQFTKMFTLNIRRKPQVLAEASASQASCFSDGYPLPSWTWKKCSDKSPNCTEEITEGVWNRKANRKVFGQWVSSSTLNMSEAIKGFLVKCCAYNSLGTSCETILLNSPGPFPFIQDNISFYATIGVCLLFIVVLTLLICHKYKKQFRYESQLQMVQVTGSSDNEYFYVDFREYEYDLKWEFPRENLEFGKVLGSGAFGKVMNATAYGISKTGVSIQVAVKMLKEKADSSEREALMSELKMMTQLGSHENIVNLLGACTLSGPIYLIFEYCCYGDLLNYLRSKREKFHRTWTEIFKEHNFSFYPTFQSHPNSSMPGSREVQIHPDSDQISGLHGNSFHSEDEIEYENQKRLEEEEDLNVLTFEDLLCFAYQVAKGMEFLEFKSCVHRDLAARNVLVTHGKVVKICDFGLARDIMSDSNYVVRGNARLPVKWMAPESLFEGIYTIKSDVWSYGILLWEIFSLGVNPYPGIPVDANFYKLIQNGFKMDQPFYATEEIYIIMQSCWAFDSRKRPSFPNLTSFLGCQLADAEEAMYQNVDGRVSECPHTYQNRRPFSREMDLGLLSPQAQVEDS

hp70S6K1 (RPS6KB1) = biological target: T2, hp70S6K1 (RPS6KB1) (Homo sapiens, UniProt P23443); test: Cerep LANCE kinase assay hp70S6K1 (S1 assay 31); assay type: biochemical
T2 construct: purchased Cerep (LANCE kinase assay platform, contract assay)
T2 sequence (P23443 whole entry): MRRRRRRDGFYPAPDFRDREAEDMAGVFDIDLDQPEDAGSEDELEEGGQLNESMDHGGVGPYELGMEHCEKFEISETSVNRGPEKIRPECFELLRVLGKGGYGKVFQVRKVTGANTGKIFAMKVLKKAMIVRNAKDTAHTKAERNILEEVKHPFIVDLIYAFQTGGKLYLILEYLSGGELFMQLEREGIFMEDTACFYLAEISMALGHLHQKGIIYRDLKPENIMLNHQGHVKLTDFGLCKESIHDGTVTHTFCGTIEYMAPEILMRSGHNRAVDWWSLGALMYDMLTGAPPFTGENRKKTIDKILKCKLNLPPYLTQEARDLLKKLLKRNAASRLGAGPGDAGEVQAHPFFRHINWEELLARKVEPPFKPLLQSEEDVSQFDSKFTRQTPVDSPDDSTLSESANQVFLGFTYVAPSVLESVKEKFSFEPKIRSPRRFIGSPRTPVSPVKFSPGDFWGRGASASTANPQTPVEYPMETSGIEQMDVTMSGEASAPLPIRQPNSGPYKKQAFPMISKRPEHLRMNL

[7] = tested on: alkaline phosphatase (ALP) activity in C2C12 cells; assay type: cell-based; conditions: concentration response
Colo320 = test: cells; assay type: cell-based; conditions: basal
SNU-C1 = test: cells; assay type: cell-based
hJAK2 = biological target: T3, hJAK2 (Homo sapiens, UniProt O60674); test: Cerep LANCE kinase assay hJAK2 (S1 assay 33); assay type: biochemical
T3 construct: purchased Cerep (LANCE kinase assay platform, contract assay)
T3 sequence (O60674 whole entry): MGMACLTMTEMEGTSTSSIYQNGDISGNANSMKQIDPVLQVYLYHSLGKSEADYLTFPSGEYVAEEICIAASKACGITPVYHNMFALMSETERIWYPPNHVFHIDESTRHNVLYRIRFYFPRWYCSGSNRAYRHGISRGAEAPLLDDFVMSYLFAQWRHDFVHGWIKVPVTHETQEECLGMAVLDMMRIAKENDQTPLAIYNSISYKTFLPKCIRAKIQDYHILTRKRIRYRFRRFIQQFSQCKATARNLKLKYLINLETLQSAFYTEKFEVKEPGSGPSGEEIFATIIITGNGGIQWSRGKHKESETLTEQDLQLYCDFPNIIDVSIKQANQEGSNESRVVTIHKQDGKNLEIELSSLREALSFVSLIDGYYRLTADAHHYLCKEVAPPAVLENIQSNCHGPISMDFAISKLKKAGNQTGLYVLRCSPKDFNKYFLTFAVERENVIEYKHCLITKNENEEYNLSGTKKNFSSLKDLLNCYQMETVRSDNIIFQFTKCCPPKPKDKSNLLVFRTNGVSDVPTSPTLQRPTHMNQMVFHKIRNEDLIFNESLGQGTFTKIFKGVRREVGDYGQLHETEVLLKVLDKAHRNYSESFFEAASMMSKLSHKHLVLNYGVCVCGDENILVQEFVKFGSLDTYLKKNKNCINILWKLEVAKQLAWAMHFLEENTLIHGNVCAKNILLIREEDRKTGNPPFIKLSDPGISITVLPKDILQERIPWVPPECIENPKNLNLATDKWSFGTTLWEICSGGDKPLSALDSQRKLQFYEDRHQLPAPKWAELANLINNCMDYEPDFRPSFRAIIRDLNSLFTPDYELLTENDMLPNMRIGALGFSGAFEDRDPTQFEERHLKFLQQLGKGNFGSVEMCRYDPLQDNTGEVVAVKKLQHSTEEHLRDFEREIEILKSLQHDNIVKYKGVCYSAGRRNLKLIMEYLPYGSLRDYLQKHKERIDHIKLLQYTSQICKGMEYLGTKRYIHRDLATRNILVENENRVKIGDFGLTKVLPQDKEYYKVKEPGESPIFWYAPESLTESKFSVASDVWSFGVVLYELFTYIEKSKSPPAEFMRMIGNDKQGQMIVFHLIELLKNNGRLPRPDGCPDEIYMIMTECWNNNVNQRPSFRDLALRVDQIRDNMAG

RKO = test: cells; assay type: cell-based
STC-1 cell line = assay type: cell-based, mouse; conditions: concentration response
hGSK3b = biological target: T4, hGSK3b (Homo sapiens, UniProt P49841); test: Cerep LANCE kinase assay hGSK3b (S1 assay 34); assay type: biochemical
T4 construct: purchased Cerep (LANCE kinase assay platform, contract assay)
T4 sequence (P49841 whole entry): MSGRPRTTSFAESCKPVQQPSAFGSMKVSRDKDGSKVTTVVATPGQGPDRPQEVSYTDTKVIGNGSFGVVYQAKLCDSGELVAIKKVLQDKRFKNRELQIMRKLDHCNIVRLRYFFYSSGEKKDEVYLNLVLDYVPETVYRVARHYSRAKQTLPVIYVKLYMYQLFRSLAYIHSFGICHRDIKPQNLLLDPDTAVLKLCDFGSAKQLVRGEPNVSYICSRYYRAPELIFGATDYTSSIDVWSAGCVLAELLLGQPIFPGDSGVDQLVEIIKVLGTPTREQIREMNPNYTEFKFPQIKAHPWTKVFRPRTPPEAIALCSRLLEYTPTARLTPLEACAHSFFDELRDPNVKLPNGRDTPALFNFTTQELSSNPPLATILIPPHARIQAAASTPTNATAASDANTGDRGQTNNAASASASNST

hKDR = biological target: T5, hKDR (Homo sapiens, UniProt P35968); test: Cerep LANCE kinase assay hKDR (S1 assay 32); assay type: biochemical
T5 construct: purchased Cerep (LANCE kinase assay platform, contract assay)
T5 sequence (P35968 20-1356): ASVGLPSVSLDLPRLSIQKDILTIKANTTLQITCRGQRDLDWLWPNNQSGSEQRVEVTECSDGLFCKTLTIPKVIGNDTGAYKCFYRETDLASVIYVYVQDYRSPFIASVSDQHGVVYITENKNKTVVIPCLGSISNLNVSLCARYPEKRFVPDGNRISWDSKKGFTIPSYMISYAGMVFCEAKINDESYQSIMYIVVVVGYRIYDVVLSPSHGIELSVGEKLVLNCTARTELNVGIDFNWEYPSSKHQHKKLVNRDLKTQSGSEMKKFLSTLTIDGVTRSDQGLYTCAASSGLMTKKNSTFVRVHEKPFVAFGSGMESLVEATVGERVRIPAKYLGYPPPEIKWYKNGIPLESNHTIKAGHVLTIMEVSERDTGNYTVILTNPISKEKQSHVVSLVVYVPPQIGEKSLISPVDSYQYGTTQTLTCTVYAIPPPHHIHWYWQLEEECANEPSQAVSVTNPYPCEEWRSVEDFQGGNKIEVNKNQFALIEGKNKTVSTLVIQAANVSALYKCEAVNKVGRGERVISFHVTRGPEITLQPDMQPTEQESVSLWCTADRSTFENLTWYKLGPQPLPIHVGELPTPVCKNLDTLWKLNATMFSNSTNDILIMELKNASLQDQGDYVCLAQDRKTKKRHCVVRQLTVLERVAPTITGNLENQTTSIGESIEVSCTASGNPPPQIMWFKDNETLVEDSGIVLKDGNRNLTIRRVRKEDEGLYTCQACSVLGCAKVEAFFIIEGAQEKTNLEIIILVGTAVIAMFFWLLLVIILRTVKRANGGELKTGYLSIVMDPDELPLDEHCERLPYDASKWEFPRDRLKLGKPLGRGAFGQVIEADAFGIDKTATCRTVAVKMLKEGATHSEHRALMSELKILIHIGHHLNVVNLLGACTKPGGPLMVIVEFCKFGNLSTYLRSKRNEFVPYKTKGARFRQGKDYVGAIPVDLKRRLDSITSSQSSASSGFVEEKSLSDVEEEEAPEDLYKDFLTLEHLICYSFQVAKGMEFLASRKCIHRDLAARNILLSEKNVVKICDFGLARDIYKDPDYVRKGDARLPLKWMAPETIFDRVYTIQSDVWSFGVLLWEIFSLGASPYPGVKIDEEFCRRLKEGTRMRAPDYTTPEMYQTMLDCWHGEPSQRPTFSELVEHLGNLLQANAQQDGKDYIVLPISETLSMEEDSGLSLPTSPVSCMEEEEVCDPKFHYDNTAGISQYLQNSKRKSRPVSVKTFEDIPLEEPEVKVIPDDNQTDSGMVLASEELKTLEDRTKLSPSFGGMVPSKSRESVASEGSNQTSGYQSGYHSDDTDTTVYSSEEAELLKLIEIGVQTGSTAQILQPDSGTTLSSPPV
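Wherever 5mMGluc INS1E SecretionMod IC50/EC50 is given: secreted insulin quantified by homogeneous immunoassay.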
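Wherever IC50/EC50, 5mMGluc INS1E SecretionMod (assay number 8) is given: secreted insulin quantified by homogeneous immunoassay.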

CCOc1cc(CC(=O)N[C@@H](CC(C)C)c2ccccc2N2CCCCC2)ccc1C(=O)O [repaglinide, reference compound]
IC50 ([1]; Homo sapiens, HCT-116, read-out: HCT-116 (GSK3β) viab. IC50, Table 2, GSK3β inhibitor LY2090314 20 nM, 72 h, Cell TiterGlo, 20 coded): > 20 µM
EC50 (NCI-H716 cells; Homo sapiens, NCI-H716, read-out: GLP1 sec. EC50): > 10 µM
IC50 (SW480; Homo sapiens, SW480, 72 h, Table 2, 72 h, Cell TiterGlo, non-adherent, 20 coded, read-out: SW480 viab. IC50): > 20 µM
EC50 (INS-1E cells [2]; read-out: Ins. sec. EC50): 0.03 µM
EC50 (INS-1E cells [2]; 5 mM glucose, read-out: insulin secretion EC50): 0.027 µM
IC50 (HCT116; Homo sapiens, HCT-116, 72 h, read-out: HCT-116 viab. IC50, Table 2, basal, 72 h, Cell TiterGlo, non-adherent, 20 coded): > 20 µM
G2/M IC50 / EC50 (HeLa cells; Table 2, HeLa, […], 20 / 20.1 coded): 20.1
insulin secretion at low glucose (in words) (INS-1E cells [3]; INS-1E, 0.1 mM glucose): stimulated insulin secretion at low glucose concentrations
EC50 ([4]; Mus musculus, C2C12, Table 2, C2C12, […], 20 / 20.1 coded, read-out: Wnt pot. EC50): > 10 µM
IC50 (DLD-1; Homo sapiens, DLD-1, 72 h, Table 2, 72 h, Cell TiterGlo, non-adherent, 20 coded, read-out: DLD-1 viab. IC50): > 20 µM
IC50 ([5]; Homo sapiens, Table 2, primary assay tube area, 20 = no response in concentration-response, 20.1 = inactive in single concentration testing, read-out: Anti-Angio IC50): > 10 µM

CCCCN1CCCCC1C(=O)Nc1c(C)cccc1C (stereo not shown) [NCGC00178579-04]
5mMGluc_INS1E SecretionMod IC50/EC50 (INS-1E cells [2]; assay number 8, 5 mM glucose): 27.1706 µM
0.1mMGluc_INS1E SecretionMod Act IC50/EC50 (INS-1E cells [3]; assay number 9, 0.1 mM glucose): > 33.33 µM

CC(C)(C)c1nnc(NS(=O)(=O)c2ccccc2)s1 [NCGC00182991-01]
5mMGluc_INS1E SecretionMod IC50/EC50 (INS-1E cells [2]; assay number 8, 5 mM glucose): 13.1318 µM
0.1mMGluc_INS1E SecretionMod Act IC50/EC50 (INS-1E cells [3]; assay number 9, 0.1 mM glucose): > 33.33 µM

O=C(NN1CCCC1)NS(=O)(=O)c1ccc(Cl)cc1 [NCGC00182989-01]
5mMGluc_INS1E SecretionMod IC50/EC50 (INS-1E cells [2]): 14.8718 µM
0.1mMGluc_INS1E SecretionMod Act IC50/EC50 (INS-1E cells [3]): > 33.33 µM

CC(C)(Cc1c[nH]c2ccccc12)NCC(O)COc1ccccc1C#N (stereo not shown) [NCGC00167817-02]
5mMGluc_INS1E SecretionMod IC50/EC50 (INS-1E cells [2]; assay number 8, 5 mM glucose): 15.0119 µM
0.1mMGluc_INS1E SecretionMod Act IC50/EC50 (INS-1E cells [3]; assay number 9, 0.1 mM glucose): > 33.33 µM

NC(=NCCCCCCN=C(N)/N=C(\N)Nc1ccc(Cl)cc1)/N=C(\N)Nc1ccc(Cl)cc1 [NCGC00016246-09]
IC50/EC50, VEGF_ADSC\ECFC Angio Hoechst NucArea (assay number 3) [6]: > 10 µM
IC50/EC50, Basal_Viability ATP HT-29 (assay number 28) (HT-29; basal): 3.7852 µM
IC50/EC50, hFLT3 LANCE (assay number 35) (hFLT3): > 20 µM
IC50/EC50, hp70S6K1 LANCE (assay number 31) (hp70S6K1 (RPS6KB1)): > 20 µM
IC50/EC50, WntCondMedia_Alk Phos C2C12 (assay number 6) [7]: > 20 µM
IC50/EC50, Basal_Viability ATP Colo 320 (assay number 27) (Colo320): 5.1631 µM
IC50/EC50, Basal_Viability ATP SNU-C1 (assay number 30) (SNU-C1; basal): 0.4386 µM
IC50/EC50, hNCI-H716 GLP1 Secretion (assay number 12) (NCI-H716 cells; concentration response): 26.2027 µM
IC50/EC50, Basal_Viability ATP SW480 (assay number 24) (SW480; basal): 5.6664 µM
IC50/EC50, 5mMGluc_INS1E SecretionMod (assay number 8) (INS-1E cells [2]; 5 mM glucose): 25.1792 µM
IC50/EC50, hJAK2 LANCE (assay number 33) (hJAK2): > 20 µM
IC50/EC50, Basal_Viability ATP RKO (assay number 29) (RKO; basal): 4.5801 µM
IC50/EC50, mSTC-1 GLP1 Secretion (assay number 13) (STC-1 cell line): 10.3287 µM
IC50/EC50, hGSK3b LANCE (assay number 34) (hGSK3b): > 20 µM
IC50/EC50, Basal_Viability ATP HCT116 (assay number 25) (HCT116; basal): 4.3853 µM
IC50/EC50, Hela CellCycMod PI 2N (assay number 14) (HeLa cells; 2N): > 10 µM
IC50/EC50, Hela CellCycMod PI 4N (assay number 16) (HeLa cells; 4N): > 10 µM
IC50/EC50, Hela CellCycMod PI Cell Number (assay number 18) (HeLa cells; Cell Number): 6.7072 µM
IC50/EC50, Hela CellCycMod PI MI (assay number 17) (HeLa cells; MI): > 10 µM
IC50/EC50, WntCondMedia_bCatenin C2C12 (assay number 5) ([4]; concentration response): > 20 µM
IC50/EC50, Basal_Viability ATP DLD-1 (assay number 23) (DLD-1; basal): 2.8031 µM
IC50/EC50, hKDR LANCE (assay number 32) (hKDR): > 20 µM
IC50/EC50, VEGF_ADSC\ECFC Angio CD31 TubeArea (assay number 2) [5]: 1.3455 µM

CN(C)CC[C@@H](c1ccc(Br)cc1)c1ccccn1.O=C(O)/C=C\C(=O)O [NCGC00015146-11]
5mMGluc_INS1E SecretionMod IC50/EC50 (INS-1E cells [2]; assay number 8, 5 mM glucose): 3.76 µM
0.1mMGluc_INS1E SecretionMod Act IC50/EC50 (INS-1E cells [3]; assay number 9, 0.1 mM glucose): 6.368 µM

COc1cc(C(=O)OCCCN2CCCN(CCCOC(=O)c3cc(OC)c(OC)c(OC)c3)CC2)cc(OC)c1OC [NCGC00016747-07]
5mMGluc_INS1E SecretionMod IC50/EC50 (INS-1E cells [2]; assay number 8, 5 mM glucose): 10.1571 µM
0.1mMGluc_INS1E SecretionMod Act IC50/EC50 (INS-1E cells [3]; assay number 9, 0.1 mM glucose): 18.0188 µM

Cl.N[C@@H]1C[C@H]1c1ccccc1 [NCGC00016598-02]
5mMGluc_INS1E SecretionMod IC50/EC50 (INS-1E cells [2]; assay number 8, 5 mM glucose): > 33.33 µM
0.1mMGluc_INS1E SecretionMod Act IC50/EC50 (INS-1E cells [3]; assay number 9, 0.1 mM glucose): > 33.33 µM

Nc1ccc2cc3ccc(N)cc3nc2c1 [NCGC00166245-04]
hFLT3 LANCE IC50/EC50 (hFLT3; assay number 35): > 20 µM
hp70S6K1 LANCE IC50/EC50 (hp70S6K1 (RPS6KB1); assay number 31): > 20 µM
WntCondMedia_Alk Phos C2C12 IC50/EC50 ([7]; assay number 6): > 20 µM
5mMGluc_INS1E SecretionMod IC50/EC50 (INS-1E cells [2]; assay number 8, 5 mM glucose): 20.6221 µM
hJAK2 LANCE IC50/EC50 (hJAK2; assay number 33): > 20 µM
hGSK3b LANCE IC50/EC50 (hGSK3b; assay number 34): > 20 µM
Hela CellCycMod PI 2N IC50/EC50 (HeLa cells; assay number 14, 2N): > 10 µM
Hela CellCycMod PI S Phase IC50/EC50 (HeLa cells; assay number 15, S phase): 3.4397 µM
Hela CellCycMod PI 4N IC50/EC50 (HeLa cells; assay number 16, 4N): > 10 µM
Hela CellCycMod PI MI IC50/EC50 (HeLa cells; assay number 17, MI): 2.4689 µM
Hela CellCycMod PI Cell Number IC50/EC50 (HeLa cells; assay number 18, cell number): 1.3426 µM
0.1mMGluc_INS1E SecretionMod Act IC50/EC50 (INS-1E cells [3]; assay number 9, 0.1 mM glucose): > 33.33 µM
WntCondMedia_bCatenin C2C12 IC50/EC50 ([4]; assay number 5, concentration response): 5.9868 µM
hKDR LANCE IC50/EC50 (hKDR; assay number 32): > 20 µM

Cl.NCC1CCC(C(=O)Oc2ccc(CCC(=O)O)cc2)CC1 (stereo not shown) [NCGC00164584-03]
5mMGluc_INS1E SecretionMod IC50/EC50 (INS-1E cells [2]; assay number 8, 5 mM glucose): > 33.33 µM
0.1mMGluc_INS1E SecretionMod Act IC50/EC50 (INS-1E cells [3]; assay number 9, 0.1 mM glucose): > 33.33 µM

Cc1c(C)n(Cc2ccccc2)c2ccc(C(=O)OCCN(C)C)cc12 [NCGC00160412-04]
Basal_Viability ATP HT-29 IC50/EC50 (HT-29): > 6.6667 µM
Basal_Viability ATP SNU-C1 IC50/EC50 (SNU-C1): 11.9645 µM
GSK3b inh pretreated_Viability ATP HCT116 IC50/EC50 [1]: 5.474 µM
Basal_Viability ATP SW480 IC50/EC50 (SW480): 8.7786 µM
5mMGluc_INS1E SecretionMod IC50/EC50 (INS-1E cells [2]): 3.845 µM
Basal_Viability ATP RKO IC50/EC50 (RKO): 12.7694 µM
Basal_Viability ATP HCT116 IC50/EC50 (HCT116): 11.7611 µM
0.1mMGluc_INS1E SecretionMod Act IC50/EC50 (INS-1E cells [3]): 14.9139 µM
Basal_Viability ATP DLD-1 IC50/EC50 (DLD-1): 11.2721 µM
